Source: ChEMBL document CHEMBL5233266, “β-Carboline as a Privileged Scaffold for Multitarget Strategies in Alzheimer's Disease Therapy” (J Med Chem, 2021)
Where “and” joins values, the source holds several entries; their conditions need not be identical. Equal entries are not always repeated. Blank lines part the entries; values can stand above or below the compound they belong to.

Assays:
[1] = biological target: cGMP-specific 3',5'-cyclic phosphodiesterase (Homo sapiens, UniProt O76074); experiment: Inhibition of PDE5 (unknown origin)
Histone deacetylase 1 = Histone deacetylase 1 (Homo sapiens, UniProt Q13547); experiment: Inhibition of HDAC1 (unknown origin)
Histone deacetylase 1, sequence (Q13547 whole entry): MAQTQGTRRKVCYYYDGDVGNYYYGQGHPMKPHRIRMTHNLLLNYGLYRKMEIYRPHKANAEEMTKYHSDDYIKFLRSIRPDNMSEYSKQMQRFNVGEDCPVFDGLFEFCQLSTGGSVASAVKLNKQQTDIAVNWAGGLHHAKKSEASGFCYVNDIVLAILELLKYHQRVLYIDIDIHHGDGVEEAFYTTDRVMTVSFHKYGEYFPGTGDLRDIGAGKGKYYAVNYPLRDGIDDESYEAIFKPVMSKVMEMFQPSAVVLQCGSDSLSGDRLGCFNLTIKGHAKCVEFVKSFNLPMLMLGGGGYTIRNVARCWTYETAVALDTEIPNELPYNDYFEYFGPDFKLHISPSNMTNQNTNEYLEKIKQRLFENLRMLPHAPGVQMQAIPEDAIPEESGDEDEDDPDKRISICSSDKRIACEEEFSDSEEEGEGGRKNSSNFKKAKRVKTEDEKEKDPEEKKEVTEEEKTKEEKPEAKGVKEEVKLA

[2] = biological target: T1, Protein deacetylase HDAC6 (Homo sapiens, UniProt Q9UBN7); experiment: Inhibition of HDAC6 (unknown origin)
T1 sequence (Q9UBN7 whole entry): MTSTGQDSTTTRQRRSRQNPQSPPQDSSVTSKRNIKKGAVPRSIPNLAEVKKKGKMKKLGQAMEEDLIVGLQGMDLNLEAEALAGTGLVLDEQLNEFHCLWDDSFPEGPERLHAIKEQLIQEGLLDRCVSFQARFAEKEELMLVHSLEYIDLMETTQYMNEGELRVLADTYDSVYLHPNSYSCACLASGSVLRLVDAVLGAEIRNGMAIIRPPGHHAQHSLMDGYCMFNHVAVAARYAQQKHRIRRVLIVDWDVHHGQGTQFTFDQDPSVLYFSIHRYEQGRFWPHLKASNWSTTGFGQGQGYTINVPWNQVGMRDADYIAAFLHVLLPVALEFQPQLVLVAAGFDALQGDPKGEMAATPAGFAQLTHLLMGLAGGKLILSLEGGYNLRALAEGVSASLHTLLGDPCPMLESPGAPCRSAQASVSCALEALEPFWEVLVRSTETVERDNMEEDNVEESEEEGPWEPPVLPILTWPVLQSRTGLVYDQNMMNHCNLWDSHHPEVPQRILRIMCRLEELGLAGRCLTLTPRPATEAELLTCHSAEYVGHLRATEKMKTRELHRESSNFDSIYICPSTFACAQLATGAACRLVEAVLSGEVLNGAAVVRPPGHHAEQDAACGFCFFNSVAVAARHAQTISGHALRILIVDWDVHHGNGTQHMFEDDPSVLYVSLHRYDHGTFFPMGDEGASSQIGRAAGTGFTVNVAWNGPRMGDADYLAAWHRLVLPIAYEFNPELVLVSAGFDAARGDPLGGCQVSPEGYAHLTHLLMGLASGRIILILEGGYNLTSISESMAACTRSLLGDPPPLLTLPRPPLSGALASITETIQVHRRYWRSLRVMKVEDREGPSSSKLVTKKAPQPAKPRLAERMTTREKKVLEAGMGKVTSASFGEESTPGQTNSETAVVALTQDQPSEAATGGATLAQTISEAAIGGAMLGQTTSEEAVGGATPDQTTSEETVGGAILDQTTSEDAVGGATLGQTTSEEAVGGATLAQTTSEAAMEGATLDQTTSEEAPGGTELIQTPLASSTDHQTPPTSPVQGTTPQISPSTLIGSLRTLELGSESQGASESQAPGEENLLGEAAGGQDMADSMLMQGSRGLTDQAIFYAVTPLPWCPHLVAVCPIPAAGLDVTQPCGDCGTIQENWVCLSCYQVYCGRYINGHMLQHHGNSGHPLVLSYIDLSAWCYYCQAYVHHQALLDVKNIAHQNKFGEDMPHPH

Histone deacetylase = experiment: Inhibition of HDAC (unknown origin); type: protein assay, Homo sapiens
[3] = biological target: Glycogen synthase kinase-3 beta (Homo sapiens, UniProt P49841); experiment: Inhibition of GSK-3beta (unknown origin)
Glycogen synthase kinase-3 beta, sequence (P49841 whole entry): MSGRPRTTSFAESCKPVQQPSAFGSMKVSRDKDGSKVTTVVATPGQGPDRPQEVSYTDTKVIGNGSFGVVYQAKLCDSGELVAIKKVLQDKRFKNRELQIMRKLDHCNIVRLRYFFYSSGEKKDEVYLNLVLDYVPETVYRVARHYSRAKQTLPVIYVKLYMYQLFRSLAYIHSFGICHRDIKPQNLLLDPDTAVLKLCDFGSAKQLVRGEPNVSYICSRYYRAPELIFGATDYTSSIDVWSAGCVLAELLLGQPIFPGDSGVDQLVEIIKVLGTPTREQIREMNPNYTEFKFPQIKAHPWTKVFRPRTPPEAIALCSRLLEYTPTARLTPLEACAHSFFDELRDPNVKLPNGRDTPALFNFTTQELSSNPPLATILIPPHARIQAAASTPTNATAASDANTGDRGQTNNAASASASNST

[4] = biological target: T2, Amine oxidase [flavin-containing] A (Homo sapiens, UniProt P21397); experiment: Binding affinity to MAO-A (unknown origin) assessed as inhibition constant
T2 sequence (P21397 whole entry): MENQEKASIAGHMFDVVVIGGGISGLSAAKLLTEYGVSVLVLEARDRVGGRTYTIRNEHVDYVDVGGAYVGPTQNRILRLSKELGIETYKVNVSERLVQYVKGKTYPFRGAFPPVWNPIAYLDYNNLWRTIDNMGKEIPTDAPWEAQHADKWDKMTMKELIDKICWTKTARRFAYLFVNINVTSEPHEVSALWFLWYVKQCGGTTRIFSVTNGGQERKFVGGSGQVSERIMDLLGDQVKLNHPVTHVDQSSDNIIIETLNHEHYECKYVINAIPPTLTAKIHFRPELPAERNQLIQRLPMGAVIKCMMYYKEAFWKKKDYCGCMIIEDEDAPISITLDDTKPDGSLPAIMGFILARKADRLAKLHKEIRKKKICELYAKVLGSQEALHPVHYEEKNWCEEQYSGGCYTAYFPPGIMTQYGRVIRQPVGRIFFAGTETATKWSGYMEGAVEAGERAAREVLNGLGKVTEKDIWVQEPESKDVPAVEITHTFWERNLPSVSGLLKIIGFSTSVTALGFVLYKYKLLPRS

[5] = biological target: T2, Amine oxidase [flavin-containing] A; experiment: Inhibition of MAO-A (unknown origin)
[6] = biological target: T3, Amine oxidase [flavin-containing] B (Homo sapiens, UniProt P27338); experiment: Inhibition of MAO-B (unknown origin)
T3 sequence (P27338 whole entry): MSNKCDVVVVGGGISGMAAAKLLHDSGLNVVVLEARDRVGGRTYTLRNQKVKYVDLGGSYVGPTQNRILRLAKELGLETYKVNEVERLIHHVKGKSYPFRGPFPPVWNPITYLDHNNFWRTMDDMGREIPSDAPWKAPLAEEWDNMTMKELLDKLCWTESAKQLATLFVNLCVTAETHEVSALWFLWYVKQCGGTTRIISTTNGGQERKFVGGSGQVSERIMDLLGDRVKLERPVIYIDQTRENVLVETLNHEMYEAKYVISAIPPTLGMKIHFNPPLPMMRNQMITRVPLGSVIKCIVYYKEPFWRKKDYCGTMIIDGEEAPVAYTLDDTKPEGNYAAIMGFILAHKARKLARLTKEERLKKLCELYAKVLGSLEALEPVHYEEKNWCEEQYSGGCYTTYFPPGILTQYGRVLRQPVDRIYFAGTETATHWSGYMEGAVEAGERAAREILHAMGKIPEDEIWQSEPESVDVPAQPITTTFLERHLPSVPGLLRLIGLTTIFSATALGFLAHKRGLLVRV

Acetylcholinesterase = Acetylcholinesterase (Homo sapiens, UniProt P22303); experiment: Inhibition of AChE (unknown origin)
Acetylcholinesterase, sequence (P22303 whole entry): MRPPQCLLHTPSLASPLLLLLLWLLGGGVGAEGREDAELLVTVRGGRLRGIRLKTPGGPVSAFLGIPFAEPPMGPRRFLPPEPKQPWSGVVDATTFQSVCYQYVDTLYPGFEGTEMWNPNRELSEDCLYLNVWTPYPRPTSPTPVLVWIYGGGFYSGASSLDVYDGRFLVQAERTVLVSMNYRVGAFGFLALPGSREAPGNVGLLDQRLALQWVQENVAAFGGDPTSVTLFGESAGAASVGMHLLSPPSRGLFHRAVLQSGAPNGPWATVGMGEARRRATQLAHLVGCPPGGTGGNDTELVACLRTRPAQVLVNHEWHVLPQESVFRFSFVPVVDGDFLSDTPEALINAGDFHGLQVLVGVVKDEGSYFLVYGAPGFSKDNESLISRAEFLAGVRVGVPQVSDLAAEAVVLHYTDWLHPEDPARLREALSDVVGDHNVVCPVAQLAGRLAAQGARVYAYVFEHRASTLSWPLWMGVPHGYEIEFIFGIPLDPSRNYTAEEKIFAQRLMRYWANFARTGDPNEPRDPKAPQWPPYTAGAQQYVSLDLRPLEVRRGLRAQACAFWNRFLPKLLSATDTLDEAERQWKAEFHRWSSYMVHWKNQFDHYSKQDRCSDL

Cholinesterase = Cholinesterase (Homo sapiens, UniProt P06276); experiment: Inhibition of BuChE (unknown origin)
Cholinesterase, sequence (P06276 whole entry): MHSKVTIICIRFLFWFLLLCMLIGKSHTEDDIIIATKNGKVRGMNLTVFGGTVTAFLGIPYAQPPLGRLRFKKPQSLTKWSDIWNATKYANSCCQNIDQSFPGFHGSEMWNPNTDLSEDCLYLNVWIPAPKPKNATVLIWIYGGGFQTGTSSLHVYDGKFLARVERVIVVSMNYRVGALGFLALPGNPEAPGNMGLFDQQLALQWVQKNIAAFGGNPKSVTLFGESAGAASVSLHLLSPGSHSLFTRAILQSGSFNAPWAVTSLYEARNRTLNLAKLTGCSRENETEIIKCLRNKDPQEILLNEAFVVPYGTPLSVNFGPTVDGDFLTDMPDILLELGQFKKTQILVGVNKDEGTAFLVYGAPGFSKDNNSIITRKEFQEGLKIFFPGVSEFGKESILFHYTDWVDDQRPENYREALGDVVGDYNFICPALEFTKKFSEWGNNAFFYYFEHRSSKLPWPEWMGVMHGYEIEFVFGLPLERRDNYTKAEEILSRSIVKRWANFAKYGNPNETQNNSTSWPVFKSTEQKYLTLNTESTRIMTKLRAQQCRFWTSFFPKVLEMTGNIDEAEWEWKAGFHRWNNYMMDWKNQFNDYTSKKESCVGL

[7] = Inhibition of NMDA receptor (unknown origin); set-up: species or system Homo sapiens
[8] = biological target: Amyloid-beta precursor protein (Homo sapiens) (UniProt P05067); experiment: Inhibition of amyloid beta (unknown origin) aggregation at 25 uM relative to control
Amyloid-beta precursor protein (Homo sapiens), sequence (P05067 whole entry): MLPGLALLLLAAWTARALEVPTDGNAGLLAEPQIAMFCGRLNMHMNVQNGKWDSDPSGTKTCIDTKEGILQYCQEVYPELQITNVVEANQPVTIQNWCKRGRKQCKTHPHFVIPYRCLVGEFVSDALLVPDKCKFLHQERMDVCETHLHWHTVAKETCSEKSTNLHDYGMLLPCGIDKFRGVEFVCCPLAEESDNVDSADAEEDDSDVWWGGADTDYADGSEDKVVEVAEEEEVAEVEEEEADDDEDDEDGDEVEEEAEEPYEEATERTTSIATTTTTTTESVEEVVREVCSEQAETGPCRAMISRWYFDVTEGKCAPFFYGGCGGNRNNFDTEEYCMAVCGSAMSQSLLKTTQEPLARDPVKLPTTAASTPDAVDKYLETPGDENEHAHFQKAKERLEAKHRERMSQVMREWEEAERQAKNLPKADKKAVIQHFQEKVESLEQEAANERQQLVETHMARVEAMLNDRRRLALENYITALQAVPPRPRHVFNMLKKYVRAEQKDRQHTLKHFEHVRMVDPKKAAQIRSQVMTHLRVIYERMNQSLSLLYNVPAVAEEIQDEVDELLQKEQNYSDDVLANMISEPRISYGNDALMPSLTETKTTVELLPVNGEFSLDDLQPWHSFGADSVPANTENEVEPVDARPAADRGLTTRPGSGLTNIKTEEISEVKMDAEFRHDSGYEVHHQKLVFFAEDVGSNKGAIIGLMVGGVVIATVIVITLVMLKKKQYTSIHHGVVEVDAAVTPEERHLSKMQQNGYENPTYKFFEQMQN

[9] = biological target: 5-hydroxytryptamine receptor 2A (Homo sapiens, UniProt P28223); experiment: Displacement of [3H]-LSD from human 5-HT2A expressed in human HEK cells assessed as inhibition constant by FLIPR assay; type: cell-based
5-hydroxytryptamine receptor 2A, sequence (P28223 whole entry): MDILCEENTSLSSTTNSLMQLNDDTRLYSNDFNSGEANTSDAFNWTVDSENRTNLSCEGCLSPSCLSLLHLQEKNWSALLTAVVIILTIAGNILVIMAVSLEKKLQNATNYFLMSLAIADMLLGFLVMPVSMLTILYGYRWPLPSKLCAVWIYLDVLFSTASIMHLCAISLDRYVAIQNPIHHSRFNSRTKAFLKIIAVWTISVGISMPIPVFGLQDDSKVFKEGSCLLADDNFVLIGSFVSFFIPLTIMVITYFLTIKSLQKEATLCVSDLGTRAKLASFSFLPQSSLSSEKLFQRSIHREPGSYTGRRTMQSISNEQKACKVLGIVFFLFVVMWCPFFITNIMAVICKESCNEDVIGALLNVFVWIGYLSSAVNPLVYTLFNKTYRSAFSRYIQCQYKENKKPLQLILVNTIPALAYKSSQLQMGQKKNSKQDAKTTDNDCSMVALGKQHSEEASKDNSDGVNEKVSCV

[10] = biological target: T4, 5-hydroxytryptamine receptor 3A (Homo sapiens, UniProt P46098); experiment: Binding affinity to 5-HT3R (unknown origin) assessed as inhibition constant
T4 sequence (P46098 whole entry): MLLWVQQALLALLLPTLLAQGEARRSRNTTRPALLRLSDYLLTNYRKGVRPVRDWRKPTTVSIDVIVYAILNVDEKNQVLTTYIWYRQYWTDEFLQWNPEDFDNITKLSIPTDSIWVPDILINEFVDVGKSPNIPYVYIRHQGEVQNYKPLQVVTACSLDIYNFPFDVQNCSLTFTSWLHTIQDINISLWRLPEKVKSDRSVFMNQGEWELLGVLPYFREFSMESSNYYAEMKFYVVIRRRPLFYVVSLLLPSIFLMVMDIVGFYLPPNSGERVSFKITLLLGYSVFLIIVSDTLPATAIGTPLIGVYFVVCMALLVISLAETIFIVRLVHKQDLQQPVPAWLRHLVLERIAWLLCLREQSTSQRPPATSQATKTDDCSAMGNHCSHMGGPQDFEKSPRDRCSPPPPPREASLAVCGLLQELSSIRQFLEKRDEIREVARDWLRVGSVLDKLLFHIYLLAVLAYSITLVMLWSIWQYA

[11] = biological target: 5-hydroxytryptamine receptor 5A (Homo sapiens, UniProt P47898); experiment: Binding affinity to 5-HT5AR (unknown origin) assessed as inhibition constant
5-hydroxytryptamine receptor 5A, sequence (P47898 whole entry): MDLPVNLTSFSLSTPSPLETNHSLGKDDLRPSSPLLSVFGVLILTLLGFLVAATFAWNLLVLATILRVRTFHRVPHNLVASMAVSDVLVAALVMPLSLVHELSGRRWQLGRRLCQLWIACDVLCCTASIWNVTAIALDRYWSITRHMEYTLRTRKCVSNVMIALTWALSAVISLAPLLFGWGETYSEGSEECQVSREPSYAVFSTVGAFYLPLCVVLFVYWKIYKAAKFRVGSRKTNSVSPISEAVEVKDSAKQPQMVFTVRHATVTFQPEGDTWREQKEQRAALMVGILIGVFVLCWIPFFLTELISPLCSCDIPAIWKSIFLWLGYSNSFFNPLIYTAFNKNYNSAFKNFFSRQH

Compound: Oc1cccc2c1[nH]c1c(C3=C[C@@]4(O)CC/C=C\CCCCN5CCC3[C@]3(C[C@@H]6/C=C\CCCCN6[C@H]34)C5)nccc12 (stereo partly drawn)
- IC50 [3]: 4800 nM

Compound: COc1ccc2c3cc[n+](C)c(C)c3n(C)c2c1
- Ki [4]: 69 nM and 15 nM

Compound: CCCCn1c2cc(OCc3cn(Cc4ccccc4Cl)nn3)ccc2c2ccnc(C)c21
- IC50 [5]: 430 nM
- IC50 [6]: 360 nM

Compound: C[n+]1ccc2c3ccccc3n(CCc3ccccc3)c2c1
- IC50 (Acetylcholinesterase): 0.5 nM
- IC50 (Cholinesterase): 5000 nM
- IC50 [7]: 5000 nM

Compound: COc1ccc2c3c(n(C)c2c1)C(C)=[N+](C)CC3
- Ki [4]: 140 nM

Compound: COc1ccc2[nH]c3c(c2c1)CCN=C3C
- Ki [9]: 4200 nM
- Ki [10]: > 10000 nM
- Ki [11]: > 10000 nM

Compound: CCCc1ccc[n+](CC(=O)Nc2ccc3cc4c5[nH]c6ccccc6c5ccn4c(=O)c3c2)c1
- inhibition [8]: 93%

Compound: c1ccc2c(c1)[nH]c1c[n+](CCCCCCCCCCCC[n+]3ccc4c(c3)[nH]c3ccccc34)ccc12
- IC50 (Acetylcholinesterase): 86000 nM
- IC50 (Cholinesterase): 1800 nM
- IC50 [7]: 1800 nM

Second part, the compound after the results:

- IC50 [1]: 310 nM
- IC50 (Histone deacetylase 1): 80 nM
- IC50 [2]: 80 nM
Compound: O=C(NO)c1cnc(N2CCC(CN3CC(=O)N4C(Cc5c([nH]c6ccccc56)C4c4ccc5c(c4)OCO5)C3=O)CC2)nc1 (stereo not drawn)

- IC50 [1]: 7 nM
- IC50 (Histone deacetylase): 61 nM
Compound: O=C(CCCCN1CC(=O)N2[C@H](c3ccc(Br)cc3)c3[nH]c4ccccc4c3C[C@@H]2C1=O)NO

- IC50 [1]: 126 nM
- IC50 (Histone deacetylase): 9.1 nM
Compound: O=C(CCCCCCN1CC(=O)N2[C@H](c3ccc(Cl)cc3)c3[nH]c4ccccc4c3C[C@@H]2C1=O)NO

- IC50 [6]: 34000 nM
Compound: COC(=O)C1=CN2CCc3c([nH]c4ccccc34)[C@@H]2C[C@H]1C1=CCOC1=O

- IC50 [5]: 870 nM
- IC50 [6]: 130000 nM
Compound: C/C=C(\C=O)[C@@H]1C[C@H]2c3[nH]c4ccccc4c3CCN2C=C1C(=O)OC [ISOVALLESIACHOTAMINE]

- inhibition [8]: 93%
Compound: CCCCc1ccc[n+](CC(=O)Nc2ccc3cc4c5[nH]c6ccccc6c5ccn4c(=O)c3c2)c1

- IC50 [1]: 7 nM
- IC50 (Histone deacetylase): 61 nM
Compound: O=C(CCCCCN1CC(=O)N2[C@H](c3ccc(Br)cc3)c3[nH]c4ccccc4c3C[C@@H]2C1=O)NO
